Tests used:
[1] = test system: THP-1; assay: Cytotoxicity against human THP1 cells assessed as reduction in cell viability after 72 hrs by MTT assay; assay type: cell-based; conditions: THP-1, 72 h
[2] = test system: Leishmania donovani; assay: Antileishmanial activity against Leishmania donovani MHOM/ET/67/HU3 intracellular amastigotes infected in human THP1 cells after 96 hrs by prolong-gold antifade-reagent/DAPI staining based assay; assay type: functional, organism-based; conditions: MHOM/ET/67/HU3, THP-1, 96 h
[3] = test system: Leishmania infantum; assay: Antileishmanial activity against MIL/paromomycin resistant Leishmania infantum LEM 2126 isolate promastigote after 72 hrs by MTT assay; assay type: functional, organism-based
[4] = test system: Leishmania infantum; assay: Antileishmanial activity against Leishmania infantum LEM 3049 isolate promastigote after 72 hrs by MTT assay; assay type: functional, organism-based
[5] = test system: Leishmania infantum; assay: Antileishmanial activity against Sb 3 resistant Leishmania infantum LEM 3329 isolate promastigote after 72 hrs by MTT assay; assay type: functional, organism-based
[6] = test system: Leishmania infantum; assay: Antileishmanial activity against Leishmania infantum LEM 3049 isolate intracellular amastigotes infected in human THP1 cells after 96 hrs by prolong-gold antifade-reagent/DAPI staining based assay; assay type: functional, organism-based; conditions: THP-1, 96 h
[7] = test system: Leishmania infantum; assay: Antileishmanial activity against MIL resistant Leishmania infantum LEM 5159 isolate intracellular amastigotes infected in human THP1 cells after 96 hrs by prolong-gold antifade-reagent/DAPI staining based assay; assay type: functional, organism-based; conditions: THP-1, 96 h
[8] = test system: Leishmania infantum; assay: Antileishmanial activity against MIL/paromomycin resistant Leishmania infantum LEM 2126 isolate intracellular amastigotes infected in human THP1 cells after 96 hrs by prolong-gold antifade-reagent/DAPI staining based assay; assay type: functional, organism-based; conditions: THP-1, 96 h
[9] = test system: Leishmania infantum; assay: Antileishmanial activity against MIL resistant Leishmania infantum LEM 5159 isolate promastigote after 72 hrs by MTT assay; assay type: functional, organism-based
[10] = test system: Leishmania infantum; assay: Antileishmanial activity against Sb 3 resistant Leishmania infantum LEM 3329 isolate intracellular amastigotes infected in human THP1 cells after 96 hrs by prolong-gold antifade-reagent/DAPI staining based assay; assay type: functional, organism-based; conditions: THP-1, 96 h
[11] = Selectivity index, ratio of EC50 for cytotoxicity against human THP1 cells to EC50 for antileishmanial activity against Leishmania donovani MHOM/ET/67/HU3 amastigotes infected in human THP1 cells; assay type: toxicity, cell-based; conditions: read-out: Ratio EC50
[12] = test system: Leishmania donovani; assay: Antileishmanial activity against Leishmania donovani MHOM/ET/67/HU3 promastigote after 72 hrs by MTT assay; assay type: functional, organism-based; conditions: MHOM/ET/67/HU3, 72 h
[13] = Selectivity index, ratio of EC50 for cytotoxicity against human MRC5 cells to EC50 for antileishmanial activity against Leishmania donovani MHOM/ET/67/HU3 amastigotes infected in human THP1 cells; assay type: toxicity, cell-based; conditions: read-out: Ratio EC50
[14] = test system: Leishmania donovani; assay: Potency index, ratio of amphotericin B EC50 to test compound EC50 for antileishmanial activity against Leishmania […] amastigote infected in THP1 cells; assay type: functional
[15] = in vitro; conditions: human, microsomes

EC50 [2] | Compound | EC50 [1] | selectivity ratio [11] | EC50 [12] | other results
800 nM | O=C(OCCCCCCCCCCCCCC[n+]1cccc2ccccc21)c1ccc(O)cc1O |  | 3.7 to 5 | < 200 nM | 
150 nM | Cc1cc(O)ccc1C(=O)OCCCCCCCCCCCCCC[P+](c1ccccc1)(c1ccccc1)c1ccccc1 | 1840 nM | 12.3 | 90 nM | 
< 200 nM | O=C(O)c1ccc(OCCCCCCCCCCCCCC[P+](c2ccccc2)(c2ccccc2)c2ccccc2)cc1O |  |  | < 200 nM | selectivity ratio [13]: 2 to 27
< 1000 nM | O=Cc1ccc(OCCCCCCCCCCCCCC[P+](c2ccccc2)(c2ccccc2)c2ccccc2)cc1O |  | 2 to 27 |  | 
800 nM | O=C(OCCCCCCCCCCCC[n+]1cccc2ccccc21)c1ccc(O)cc1O |  | 3.7 to 5 | < 200 nM | 
< 1000 nM | CCOC(=O)c1c(C)cc(OCCCCCCCCCCCCCC[P+](c2ccccc2)(c2ccccc2)c2ccccc2)cc1O |  |  |  | selectivity ratio [13]: 2 to 27
100 nM | Cc1cc(O)ccc1C(=O)CCCCCCCCCCCCCCC[P+](c1ccccc1)(c1ccccc1)c1ccccc1.[Br-] | 2450 nM | 24.5 | 90 nM | Ratio EC50 [14]: 2
 | O=C(O)Cc1ccccc1Nc1c(Cl)cccc1Cl [DICLOFENAC] |  |  |  | half-life at 2 h, 40 µM [15]: < 30 min
< 1000 nM | O=C(OCCCCCCCCCCCC[P+](c1ccccc1)(c1ccccc1)c1ccccc1)c1ccc(O)cc1O |  | > 10 | < 1000 nM | 

Compound | EC50 [2] | EC50 [1] | selectivity ratio [11] | EC50 [12] | other results
C[C@@H]1[C@H](O)[C@@H](C)/C=C/C=C/C=C/C=C/C=C/C=C/C=C/[C@H](O[C@@H]2O[C@H](C)[C@@H](O)[C@H](N)[C@@H]2O)C[C@@H]2O[C@](O)(C[C@@H](O)C[C@@H](O)[C@H](O)CC[C@@H](O)C[C@@H](O)CC(=O)O[C@H]1C)C[C@H](O)[C@H]2C(=O)O [AMPHOTERICIN B] | 240 nM | 27800 nM | 116 | 130 nM | EC50 [3]: 100 nM; EC50 [4]: 60 nM; EC50 [5]: 70 nM; EC50 [6]: 170 nM; EC50 [7]: 160 nM; EC50 [8]: 160 nM; EC50 [9]: 50 nM; EC50 [10]: 180 nM

Reference: ChEMBL document CHEMBL4334518, “Discovery and Pharmacological Studies of 4-Hydroxyphenyl-Derived Phosphonium Salts Active in a Mouse Model of Visceral Leishmaniasis” (J Med Chem, 2019)
